Reference: US20210186879A1, “TARGETED DELIVERY OF HYDROPHILIC DRUGS TO LUNG” (DOUBLE BOND PHARMACEUTICALS AB, priority 2016, published 2021)

Legend:
[1] = Solubility in aqueous ethanol (UV method); type: physicochemical; conditions: for Solubility in 20% ethanol: doxycycline salts, Table 9, in mg/mL
Description: The mixture was centrifuged at 3000 rpm for 10 min and the supernatant filtered through a 0.2 micrometer filter to remove aggregates of undissolved solid product. The solubility of the compound was determined by a UV method. Particle size analysis was accomplished by laser diffraction method.

[2] = In vivo distribution of doxycycline in lung and blood serum of Wistar rats; conditions: 30 min; for Blood serum Difference / Lung tissue Difference: relative to control CI-DOX (1); for Blood serum DOX / Lung tissue DOX: doxycycline, 3 mg/kg i.v. single bolus, ± SD
Description: Five or six pieces of lung tissue of a total weight of about 1 g were taken from different parts of a lung. The samples were homogenized with a solution of aqueous ethanol containing HCl for 20 s at 7000 rpm and for 10 s at 11000 rpm. […] Doxorubicin and doxycycline (DOC) concentration in the final supernatant was determined with fluorometric analysis and high-performance liquid chromatography respectively.

[3] = doxorubicin alkyl sulfates and alkane sulfonates, 30% ethanol (v/v)
[4] = doxycycline alkane sulfonates and alkyl sulfates, 20% aqueous ethanol
[5] = irinotecan alkane sulfonates, 30% ethanol (v/v) per table title
[6] = mitoxantrone alkyl sulfates and alkane sulfonates, 30% ethanol (v/v)

Q: For `CCCCCCCCCCOS(=O)(=O)O.COc1cccc2c1C(=O)c1c(O)c3c(c(O)c1C2=O)CC(O)(C(=O)CO)CC3OC1CC(N)C(O)C(C)O1` (centres unmarked) [doxorubicin CnH2n+1OSO3^− n=10], which Solubility [1, 3] is on record?
A: 507.7 µg/mL

Q: Which Solubility [1, 3] does the source give for `CCCCCCCCCCCCCCCCCCOS(=O)(=O)O.COc1cccc2c1C(=O)c1c(O)c3c(c(O)c1C2=O)CC(O)(C(=O)CO)CC3OC1CC(N)C(O)C(C)O1` (centres unmarked) [doxorubicin CnH2n+1OSO3^− n=18] here?
A: 2.6 µg/mL

Q: With `CCCCCCCCCCS(=O)(=O)O.COc1cccc2c1C(=O)c1c(O)c3c(c(O)c1C2=O)CC(O)(C(=O)CO)CC3OC1CC(N)C(O)C(C)O1` (centres unmarked) [doxorubicin CnH2n+1SO3^− n=10] as the compound, how does the Solubility [1, 3] read?
A: 1064 µg/mL

Q: With `CCCCCCCCCCCCCCS(=O)(=O)O.COc1cccc2c1C(=O)c1c(O)c3c(c(O)c1C2=O)CC(O)(C(=O)CO)CC3OC1CC(N)C(O)C(C)O1` (centres unmarked) [doxorubicin CnH2n+1SO3^− n=14] as the compound, how does the Solubility [1, 3] read?
A: 45.96 µg/mL

Q: For `CCCCCCCCCCCCCCCCCCS(=O)(=O)O.COc1cccc2c1C(=O)c1c(O)c3c(c(O)c1C2=O)CC(O)(C(=O)CO)CC3OC1CC(N)C(O)C(C)O1` (centres unmarked) [doxorubicin CnH2n+1SO3^− n=18], which Solubility [1, 3] is on record?
A: 2.79 µg/mL

Q: For `CC1c2cccc(O)c2C(O)=C2C(=O)C3(O)C(O)=C(C(N)=O)C(=O)C(N(C)C)C3C(O)C21.CCCCCCCCCCOS(=O)(=O)O` (centres unmarked) [doxycycline CnH2n+1OSO3^− n=10], which Solubility [1, 4] is on record?
A: 3777 µg/mL

Q: With `CC1c2cccc(O)c2C(O)=C2C(=O)C3(O)C(O)=C(C(N)=O)C(=O)C(N(C)C)C3C(O)C21.CCCCCCCCCCCCOS(=O)(=O)O` (centres unmarked) [doxycycline CnH2n+1OSO3^− n=12] as the compound, how does the “Blood serum Difference” value [2] read?
A: 1.10

Q: And the “Lung tissue Difference” value [2]?
A: 3.20

Q: And the “Blood serum DOX” value [2]?
A: 127 ± 22 ng/mL

Q: What about the “Lung tissue DOX” value [2] of the same compound?
A: 551 ± 185 ng/mL

Q: With `CC1c2cccc(O)c2C(O)=C2C(=O)C3(O)C(O)=C(C(N)=O)C(=O)C(N(C)C)C3C(O)C21.CCCCCCCCCCCCCCOS(=O)(=O)O` (centres unmarked) [doxycycline CnH2n+1OSO3^− n=14] as the compound, how does the Solubility [1, 4] read?
A: 117.8 µg/mL

Q: And the “Solubility in 20% ethanol” value [1]?
A: 0.1178

Q: What about the “Blood serum Difference” value [2] of the same compound?
A: 0.39

Q: And the “Lung tissue Difference” value [2]?
A: 9.20

Q: And the “Blood serum DOX” value [2]?
A: 45 ± 1 ng/mL

Q: And the “Lung tissue DOX” value [2]?
A: 1582 ± 101 ng/mL

Q: For `CC1c2cccc(O)c2C(O)=C2C(=O)C3(O)C(O)=C(C(N)=O)C(=O)C(N(C)C)C3C(O)C21.CCCCCCCCCCCCCCCCOS(=O)(=O)O` (centres unmarked) [doxycycline CnH2n+1OSO3^− n=16], which Solubility [1, 4] is on record?
A: 31.99 µg/mL

Q: Which Solubility [1, 4] does the source give for `CC1c2cccc(O)c2C(O)=C2C(=O)C3(O)C(O)=C(C(N)=O)C(=O)C(N(C)C)C3C(O)C21.CCCCCCCCCCCCCCCCCCOS(=O)(=O)O` (centres unmarked) [doxycycline CnH2n+1OSO3^− n=18] here?
A: 5.23 µg/mL

Q: With `CC1c2cccc(O)c2C(O)=C2C(=O)C3(O)C(O)=C(C(N)=O)C(=O)C(N(C)C)C3C(O)C21.CCCCCCCCCCS(=O)(=O)O` (centres unmarked) [doxycycline CnH2n+1SO3^− n=10] as the compound, how does the Solubility [1, 4] read?
A: 3165 µg/mL

Q: With `CC1c2cccc(O)c2C(O)=C2C(=O)C3(O)C(O)=C(C(N)=O)C(=O)C(N(C)C)C3C(O)C21.CCCCCCCCCCCCS(=O)(=O)O` (centres unmarked) [doxycycline CnH2n+1SO3^− n=12] as the compound, how does the Solubility [1, 4] read?
A: 320.3 µg/mL

Q: What about the “Solubility in 20% ethanol” value [1] of the same compound?
A: 0.3203

Q: What about the “Blood serum Difference” value [2] of the same compound?
A: 0.53

Q: And the “Lung tissue Difference” value [2]?
A: 5.48

Q: And the “Blood serum DOX” value [2]?
A: 61 ± 7 ng/mL

Q: What about the “Lung tissue DOX” value [2] of the same compound?
A: 943 ± 600 ng/mL

Q: Which Solubility [1, 4] does the source give for `CC1c2cccc(O)c2C(O)=C2C(=O)C3(O)C(O)=C(C(N)=O)C(=O)C(N(C)C)C3C(O)C21.CCCCCCCCCCCCCCS(=O)(=O)O` (centres unmarked) [doxycycline CnH2n+1SO3^− n=14] here?
A: 55.1 µg/mL

Q: For `CC1c2cccc(O)c2C(O)=C2C(=O)C3(O)C(O)=C(C(N)=O)C(=O)C(N(C)C)C3C(O)C21.CCCCCCCCCCCCCCCCS(=O)(=O)O` (centres unmarked) [doxycycline CnH2n+1SO3^− n=16], which Solubility [1, 4] is on record?
A: 10.34 µg/mL

Q: And the “Solubility in 20% ethanol” value [1]?
A: 0.0103

Q: And the “Blood serum Difference” value [2]?
A: 0.22

Q: What about the “Lung tissue Difference” value [2] of the same compound?
A: 11.74

Q: And the “Blood serum DOX” value [2]?
A: 25 ± 2 ng/mL

Q: What about the “Lung tissue DOX” value [2] of the same compound?
A: 2020 ± 117 ng/mL

Q: For `CC1c2cccc(O)c2C(O)=C2C(=O)C3(O)C(O)=C(C(N)=O)C(=O)C(N(C)C)C3C(O)C21.CCCCCCCCCCCCCCCCCCS(=O)(=O)O` (centres unmarked) [doxycycline CnH2n+1SO3^− n=18], which Solubility [1, 4] is on record?
A: 1.81 µg/mL

Q: For `CCCCCCCCCCS(=O)(=O)O.CCc1c2c(nc3ccc(OC(=O)N4CCC(N5CCCCC5)CC4)cc13)-c1cc3c(c(=O)n1C2)COC(=O)C3(O)CC` (centres unmarked) [irinotecan alkane sulfonate n=10], which Solubility [1, 5] is on record?
A: 834.8 µg/mL

Q: Which Solubility [1, 5] does the source give for `CCCCCCCCCCCCS(=O)(=O)O.CCc1c2c(nc3ccc(OC(=O)N4CCC(N5CCCCC5)CC4)cc13)-c1cc3c(c(=O)n1C2)COC(=O)C3(O)CC` (centres unmarked) [irinotecan alkane sulfonate n=12] here?
A: 154.5 µg/mL

Q: For `CCCCCCCCCCCCCCS(=O)(=O)O.CCc1c2c(nc3ccc(OC(=O)N4CCC(N5CCCCC5)CC4)cc13)-c1cc3c(c(=O)n1C2)COC(=O)C3(O)CC` (centres unmarked) [irinotecan alkane sulfonate n=14], which Solubility [1, 5] is on record?
A: 70.64 µg/mL

Q: With `CCCCCCCCCCCCCCCCS(=O)(=O)O.CCc1c2c(nc3ccc(OC(=O)N4CCC(N5CCCCC5)CC4)cc13)-c1cc3c(c(=O)n1C2)COC(=O)C3(O)CC` (centres unmarked) [irinotecan alkane sulfonate n=16] as the compound, how does the Solubility [1, 5] read?
A: 14.76 µg/mL

Q: For `CCCCCCCCOS(=O)(=O)O.CCCCCCCCOS(=O)(=O)O.O=C1c2c(O)ccc(O)c2C(=O)c2c(NCCNCCO)ccc(NCCNCCO)c21` [mitoxantrone CnH2n+1OSO3^− n=8], which Solubility [1, 6] is on record?
A: 780.6 µg/mL

Q: With `CCCCCCCCCCOS(=O)(=O)O.CCCCCCCCCCOS(=O)(=O)O.O=C1c2c(O)ccc(O)c2C(=O)c2c(NCCNCCO)ccc(NCCNCCO)c21` [mitoxantrone CnH2n+1OSO3^− n=10] as the compound, how does the Solubility [1, 6] read?
A: 175.8 µg/mL

Q: With `CCCCCCCCCCCCCCOS(=O)(=O)O.CCCCCCCCCCCCCCOS(=O)(=O)O.O=C1c2c(O)ccc(O)c2C(=O)c2c(NCCNCCO)ccc(NCCNCCO)c21` [mitoxantrone CnH2n+1OSO3^− n=14] as the compound, how does the Solubility [1, 6] read?
A: 7.2 µg/mL

Q: Which Solubility [1, 6] does the source give for `CCCCCCCCS(=O)(=O)O.CCCCCCCCS(=O)(=O)O.O=C1c2c(O)ccc(O)c2C(=O)c2c(NCCNCCO)ccc(NCCNCCO)c21` [mitoxantrone CnH2n+1SO3^− n=8] here?
A: 1348 µg/mL

Q: Which Solubility [1, 6] does the source give for `CCCCCCCCCCS(=O)(=O)O.CCCCCCCCCCS(=O)(=O)O.O=C1c2c(O)ccc(O)c2C(=O)c2c(NCCNCCO)ccc(NCCNCCO)c21` [mitoxantrone CnH2n+1SO3^− n=10] here?
A: 294.9 µg/mL

Q: Which Solubility [1, 6] does the source give for `CCCCCCCCCCCCS(=O)(=O)O.CCCCCCCCCCCCS(=O)(=O)O.O=C1c2c(O)ccc(O)c2C(=O)c2c(NCCNCCO)ccc(NCCNCCO)c21` [mitoxantrone CnH2n+1SO3^− n=12] here?
A: 683.1 µg/mL

Q: With `CCCCCCCCCCCCCCS(=O)(=O)O.CCCCCCCCCCCCCCS(=O)(=O)O.O=C1c2c(O)ccc(O)c2C(=O)c2c(NCCNCCO)ccc(NCCNCCO)c21` [mitoxantrone CnH2n+1SO3^− n=14] as the compound, how does the Solubility [1, 6] read?
A: 2.03 µg/mL
